The values that follow come from BindingDB's records for doi:10.1016/j.ejmech.2021.113556 (Zhejiang University, 2021).

Structures are written as SMILES.

Broadly, the IC50 is the point on the concentration scale where inhibition reaches its midpoint. Lower therefore signals higher potency.

Assay [1] concerns the target Proteasome subunit beta type-6 (Homo sapiens) (UniProt P28072). The assay can be described thus: Inhibition of caspase-like activity of human proteasome beta-1c subunit using SUC-LLE-AMC as flurogenic substrate preincubated for 15 mins followed by substrate addition and measured after 1 hr by fluorescence assay.
For assay [2], the target named is Proteasome subunit beta type-7 (Homo sapiens) (UniProt Q99436). The assay can be described thus: Inhibition of human trypsin-like activity of 20s proteasome beta 2c subunit using SUC-KQL-AMC as flurogenic substrate preincubated for 15 mins followed by substrate addition and measured after 1 hr by fluorescence assay.
Sequence of Proteasome subunit beta type-7 (Homo sapiens) (Q99436 whole entry, looked up): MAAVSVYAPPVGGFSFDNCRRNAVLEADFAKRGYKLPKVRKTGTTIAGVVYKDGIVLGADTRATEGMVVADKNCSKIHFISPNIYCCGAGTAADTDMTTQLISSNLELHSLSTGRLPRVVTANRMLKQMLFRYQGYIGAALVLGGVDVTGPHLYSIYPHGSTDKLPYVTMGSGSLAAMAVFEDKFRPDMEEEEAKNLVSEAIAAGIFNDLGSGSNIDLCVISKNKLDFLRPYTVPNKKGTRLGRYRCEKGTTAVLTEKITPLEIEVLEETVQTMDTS

Sequence of Proteasome subunit beta type-6 (Homo sapiens) (P28072 whole entry, looked up): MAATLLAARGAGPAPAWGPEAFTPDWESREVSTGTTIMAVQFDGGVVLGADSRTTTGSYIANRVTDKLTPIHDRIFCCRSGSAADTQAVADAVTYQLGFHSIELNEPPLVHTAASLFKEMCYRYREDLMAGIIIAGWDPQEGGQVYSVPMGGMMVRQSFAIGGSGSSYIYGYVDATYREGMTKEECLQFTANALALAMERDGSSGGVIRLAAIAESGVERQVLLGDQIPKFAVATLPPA

In the case of `C[C@H](NC(=O)N1CCC(NC(=O)c2nccs2)CC1)C(=O)N[C@@H](Cc1c[nH]c2ccccc12)C(=O)N[C@@H](Cc1ccccc1)C(=O)[C@@]1(C)CO1`, the figures for the IC50 in assay [1] and in assay [2] were 4.36 µM and greater than 10 µM, respectively.

For the compound `COc1ccc(C[C@H](NC(=O)[C@@H](C)NC(=O)N2CCC(OC)CC2)C(=O)N[C@@H](Cc2ccccc2)C(=O)[C@@]2(C)CO2)cc1`, the 50% inhibitory concentration (IC50) in assay [1] and in assay [2] was greater than 10 µM each time.

On to `COc1ccc(C[C@H](NC(=O)[C@@H](C)NC(=O)N2CC[C@H](OC)C2)C(=O)N[C@@H](Cc2ccccc2)C(=O)[C@@]2(C)CO2)cc1`, for which the IC50 in assay [1] and in assay [2] was greater than 10 µM each time.

Consider `COc1ccc(C[C@H](NC(=O)[C@@H](C)NC(=O)N2CCC[C@@H](OC)C2)C(=O)N[C@@H](Cc2ccccc2)C(=O)[C@@]2(C)CO2)cc1`, for which the IC50 in assay [1] and in assay [2] was greater than 10 µM throughout.
